The numbers were not newly measured in article PMC5758054 (Journal of natural products, 2017), which cites them from elsewhere.

The series concerns murine colorectal cancer lung metasteses. The conditions noted are these: ref [36],[37].

In the case of `N#C[C@@H]1CCCN1C(=O)CNC12CC3CC(CC(O)(C3)C1)C2` [Vildagliptin], the “in vivo tumor suppressor activity (in words)” value is given as “has in vivo tumor suppressor activity”.
